Assay [1] deals with T1, TAK1 (Homo sapiens, UniProt O43318).
T1 construct: endogenous in cells; host or cells: human blood monocytes, monocyte-derived DCs and blood mDCs
T1 sequence (O43318 1-606): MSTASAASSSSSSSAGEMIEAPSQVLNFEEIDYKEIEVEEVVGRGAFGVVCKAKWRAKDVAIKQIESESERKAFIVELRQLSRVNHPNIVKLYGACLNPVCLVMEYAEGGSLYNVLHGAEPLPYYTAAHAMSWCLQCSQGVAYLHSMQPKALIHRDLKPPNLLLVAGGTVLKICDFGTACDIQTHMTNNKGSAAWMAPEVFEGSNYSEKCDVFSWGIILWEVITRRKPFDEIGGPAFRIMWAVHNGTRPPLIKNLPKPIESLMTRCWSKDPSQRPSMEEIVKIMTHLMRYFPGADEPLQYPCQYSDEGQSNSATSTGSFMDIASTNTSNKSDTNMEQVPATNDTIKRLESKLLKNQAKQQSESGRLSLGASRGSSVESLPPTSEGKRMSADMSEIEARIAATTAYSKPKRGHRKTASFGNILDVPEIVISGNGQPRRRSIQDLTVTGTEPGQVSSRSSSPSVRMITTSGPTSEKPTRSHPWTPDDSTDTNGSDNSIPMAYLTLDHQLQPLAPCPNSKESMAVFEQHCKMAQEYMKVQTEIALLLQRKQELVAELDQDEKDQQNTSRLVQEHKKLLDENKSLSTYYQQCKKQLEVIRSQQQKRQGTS
As to the kind of experiment: Caspase-1 activity (FACS) in monocytes treated with cancer-culture sups. Conditions: monocytes treated with cancer-culture sups 16 hours; 200 nm TAK1 inhibitor. It counts as cell-based.
Description: For surface staining, cells were incubated with the antibodies for 30 minutes at 4° C. in the dark, then washed three times and fixed with 1% paraformaldehyde to be analyzed in a FACS Canto (Becton Dickinson). […] For caspase-1 staining, cells were incubated with substrates (CaspaLux-E1D2, Oncolmmunin, Inc.) for 50 minutes at 37° C. and washed with washing buffer 2 times, then stained for surface markers for 10 minutes at room temperature.
Monocytes were treated with cancer-culture sups for 16 hours in the presence of a TAK1 specific inhibitor or DMSO as control. Caspase-1 activity was measured using the FACS based method. Cells were gated based on CD11c^+ viable cells.

In assay [2] the target is T1, TAK1. As to the kind of experiment: IL-1β in co-culture of cancer cells and myeloid cells upon TAK1 inhibition. It counts as cell-based. The protocol: When mDCs were co-cultured with MDA-MB231 cells for 5-90 minutes, phosphorylated (p)TAK1 could only be detected after 60 minutes (FIG. 7D). To confirm that the phosphorylation of TAK1 is TGF-β mediated, TGF-β signaling blocking reagents (TGF-β neutralizing antibody and TGF-βR kinase inhibitor) were added to the co-culture of cancer cells and mDCs. […] To examine whether TAK1-signaling participate in modulation of IL-1β production, a co-culture of cancer cells and myeloid cells was used. […]

Assay [3] relates to TAK1. The assay can be described thus: Phosphorylated TAK1 (FACS) in monocytes or mDCs. It counts as cell-based, human. Conditions: monocytes; 10 ng/ml TGF-β1 for 5-90 minutes.

As to `COc1cc(O)c2c(c1)/C=C/C[C@H](O)[C@H](O)C(=O)/C=C\C[C@H](C)OC2=O` [TAK1 inhibitor, 5z-7-oxozeaenol], the “activation of caspase-1 in monocytes” value on TAK1 [1] is reported as “prevented the activation of caspase-1”. Besides, on TAK1 [2] (cancer cells with monocytes, MDDC or mDC, 48 hours), the “IL-1β levels in co-culture supernatants (Luminex)” value is listed as “Substantially lower amounts of IL-1β were secreted”. On TAK1 [2] (co-culture 16 hours), the “expression of IL-1β by mDCs and monocytes (intracellular staining)” value is “prevented the expression of IL-1β by mDCs and monocytes”.
“TGF-β1: soluble TGF-β1 used to treat monocytes”: the “phosphorylation of TAK1” value in the assay with TAK1 [3] is reported as “induce phosphorylation of TAK1 as early as 15 minutes”.

(Values after US10023841B2, “Methods and compositions for treating breast cancer with dendritic cell vaccines” (Baylor Research Institute, priority 2014, dated 2018).)
